{"source": "patent US11439646B2", "about": "“Anti-proliferative agents for treating PAH” (Pfizer Inc., priority 2016, dated 2022)", "tested_on": "human primary PAAFs", "assay": "BrdU cell proliferation assay, human primary PAAFs", "format": "cell-based", "conditions": "serum, average of 3, FIG. 1c, read-out: IC50, serum-induced proliferation of human primary PAAFs", "experimental": "Cell proliferation assay. Primary PASMCs and PAAFs from normal human subjects (ScienCell Research Laboratories, San Diego, Calif., USA) and rat primary PASMCs (Cell Applications, San Diego, Calif., USA) were plated in CellBIND® 96-well plates in Dulbecco's modification of Eagle's medium (DMEM) containing 5% fetal bovine serum (FBS), and serum-starved for 24 h in DMEM containing 0.1% FBS. Cells were first pre-incubated with different concentrations of palbociclib (in triplicates) for 30 minutes, and then 30 ng/ml PDGF-BB or 5% FBS was added to stimulate cell proliferation. Cells were maintained for 48 h before the proliferation rate was evaluated using the Cell Proliferation ELISA BrdU (bromodeoxyuridine) Luminescence Kit (Roche Diagnostics, Mannheim, Germany). BrdU was added to the medium 16 h before the quantification of BrdU incorporation. This procedure was use to generate data as presented in at least FIGS. 1a, 1b, 1c, and 1d. IC50 values were calculated for any given inhibitor by determining the concentration of compound needed to inhibit 50% of the response applied to the system. IC50 values were derived from the four parameter logistic equation which was fit to the compound concentration response data.", "data": [{"smiles": "CC(=O)c1c(C)c2cnc(Nc3ccc(N4CCNCC4)cn3)nc2n(C2CCCC2)c1=O", "note": "[Palbociclib, 6-acetyl-8-cyclopentyl-5-methyl-2-{[5-(piperazin-1-yl)pyridin-2yl]amino}pyrido[2,3-d]pyrimidin-7(8H)-one]", "values": [{"measurement": "IC50", "value": 0.0216, "unit": "µM"}]}]}
